# Target: T1, glucocorticoid receptor (Homo sapiens, UniProt P04150)
# T1 construct: host or cells: A549 human lung epithelial cells (sonicated cell extract)
# T1 sequence (P04150 1-777): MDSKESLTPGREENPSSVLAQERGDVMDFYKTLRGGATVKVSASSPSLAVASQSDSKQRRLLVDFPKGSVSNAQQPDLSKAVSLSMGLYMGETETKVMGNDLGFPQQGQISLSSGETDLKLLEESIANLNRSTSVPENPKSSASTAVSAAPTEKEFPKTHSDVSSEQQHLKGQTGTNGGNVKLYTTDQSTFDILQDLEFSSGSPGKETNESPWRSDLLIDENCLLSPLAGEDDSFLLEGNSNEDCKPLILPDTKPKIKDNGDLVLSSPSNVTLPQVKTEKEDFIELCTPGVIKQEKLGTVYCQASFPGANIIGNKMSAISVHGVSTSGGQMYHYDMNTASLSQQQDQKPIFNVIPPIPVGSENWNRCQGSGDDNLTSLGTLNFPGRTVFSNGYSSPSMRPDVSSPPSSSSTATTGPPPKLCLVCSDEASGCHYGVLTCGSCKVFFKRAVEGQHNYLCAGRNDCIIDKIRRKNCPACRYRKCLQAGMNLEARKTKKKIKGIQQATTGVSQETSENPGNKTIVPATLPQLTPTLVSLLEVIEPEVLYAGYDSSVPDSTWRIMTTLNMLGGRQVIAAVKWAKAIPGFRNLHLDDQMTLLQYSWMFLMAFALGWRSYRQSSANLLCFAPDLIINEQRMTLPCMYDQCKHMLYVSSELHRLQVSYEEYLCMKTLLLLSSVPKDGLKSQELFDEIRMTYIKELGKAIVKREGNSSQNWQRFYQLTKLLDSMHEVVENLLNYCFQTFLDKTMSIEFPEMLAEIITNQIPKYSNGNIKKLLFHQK
# Test: Glucocorticoid Receptor Binding Assay ([3H]-dexamethasone displacement, A549 cell extract)
# Details: A549 human lung epithelial cell extract, 1.86 nM [3H]-dexamethasone; read-out: GR Ki
# Experimental: Glucocorticoid Receptor Binding Assay:
# A549 human lung epithelial cells (ATCC) are grown at a scale where gram quantity cell pellets are obtained. Harvested cell pellets are washed twice in cold phosphate buffered saline, centrifuged, and resuspended in cold assay binding buffer. The assay binding buffer consists of 10% glycerol, 50 mM Tris-HCl (pH7.2), 75 mM sodium chloride, 1.5 mM magnesium chloride, 1.5 mM EDTA, and 10 mM sodium molybdate. Cell suspensions were lysed via sonication, centrifuged, and the “extract” supernatant is snap frozen and stored at −80C. until needed.
# GR binding assays are performed in a final volume of 140 ul containing 50-200 ug of A549 cell extract and 1.86 nM [^3H]-dexamethasone (Amersham) plus varying concentrations of test compound or vehicle. Briefly, assays are prepared at RT in 96-well Fisher 3356 plates, each well containing 100 ul of A549 cell extract, 20 ul of [^3H]-dexamethasone, and 20 ul of test compound/vehicle. Incubations are carried out at 4 degrees celsius for 16 hours. After incubation, 70 ul of 3× dextran-coated charcoal solution is added to each reaction, mixed, and incubated for 8 minutes at RT. 3×-dextran-coated charcoal solution consists of 250 ml assay binding buffer, 3.75 g Norit A charcoal (Sigma), and 1.25 g dextran T-70 (Amersham). Charcoal/unbound radioligand complexes are removed by centrifugation of the plate and 140 ul of supernatant from each well is transferred to another 96 well Optiplate (Packard Instruments). 200 ul of Microscint-20 scinillant (Packard Instruments) is added to each well and amount of receptor bound radioligand is determined using Packard Instruments TopCount instrument.
# IC50 values, defined as the concentration of test compound required to decrease [^3H]-dexamethasone binding by 50%, are then determined. Ki values for each respective test compound can then be calculated by application of the Cheng-Prusoff equation as described in Cheng et al., Relationship Between The Inhibition Constant (Ki) and The Concentration of Inhibitor Which Causes 50% Inhibition (IC50) of an Enzymatic Reaction, Biochem. Pharmacol., 22: 3099-31088; (1973).
row,Ki,SMILES
1,≤ 0.5 µM,"Cc1cc(C2(c3cc(C)c(O)c(C)c3)C(=O)N(Cc3ccc([N+](=O)[O-])cc3)c3ccccc32)cc(C)c1O [Example 62, 3,3-Bis-(4-hydroxy-3,5-dimethyl-phenyl)-1-(4-nitro-benzyl)-1,3-dihydro-indol-2-one]"
2,≤ 0.5 µM,"Cc1cc(C2(c3cc(C)c(O)c(C)c3)C(=O)N(Cc3ccccc3Br)c3ccccc32)cc(C)c1O [Example 63, 1-(2-Bromo-benzyl)-3,3-bis-(4-hydroxy-3,5-dimethyl-phenyl)-1,3-dihydro-indol-2-one]"
3,≤ 0.5 µM,"Cc1cc(C2(c3cc(C)c(O)c(C)c3)C(=O)N(Cc3cccc(Br)c3)c3ccccc32)cc(C)c1O [Example 64, 1-(3-Bromo-benzyl)-3,3-bis-(4-hydroxy-3,5-dimethyl-phenyl)-1,3-dihydro-indol-2-one]"
4,≤ 0.5 µM,"Cc1cc(C2(c3cc(C)c(O)c(C)c3)C(=O)N(Cc3ccccc3[N+](=O)[O-])c3ccccc32)cc(C)c1O [Example 65, 3,3-Bis-(4-hydroxy-3,5-dimethyl-phenyl)-1-(2-nitro-benzyl)-1,3-dihydro-indol-2-one]"
5,≤ 0.5 µM,"Cc1cc(C2(c3cc(C)c(O)c(C)c3)C(=O)N(Cc3ccc([N+](=O)[O-])o3)c3ccccc32)cc(C)c1O [Example 73, 3,3-Bis-(4-hydroxy-3,5-dimethyl-phenyl)-1-(5-nitro-furan-2-ylmethyl)-1,3-dihydro-indol-2-one]"

# The next lines start with the compound.
row,SMILES,Ki
1,"Cc1cc(C2(c3cc(C)c(O)c(C)c3)C(=O)N(Cc3ccc(Br)cc3)c3ccccc32)cc(C)c1O [Example 58, 1-(4-Bromo-benzyl)-3,3-bis-(4-hydroxy-3,5-dimethyl-phenyl)-1,3-dihydro-indol-2-one]",≤ 0.5 µM
2,"Cc1cc(C2(c3cc(C)c(O)c(C)c3)C(=O)N(Cc3cccc(F)c3F)c3ccccc32)cc(C)c1O [Example 66, 1-(2,3-Difluoro-benzyl)-3,3-bis-(4-hydroxy-3,5-dimethyl-phenyl)-1,3-dihydro-indol-2-one]",≤ 0.5 µM
3,"Cc1cc(C2(c3cc(C)c(O)c(C)c3)C(=O)N(Cc3ccc(OC(F)(F)F)cc3)c3ccccc32)cc(C)c1O [Example 67, 3,3-Bis-(4-hydroxy-3,5-dimethyl-phenyl)-1-(4-trifluoromethoxy-benzyl)-1,3-dihydro-indol-2-one]",≤ 0.5 µM
4,"Cc1cc(C2(c3cc(C)c(O)c(C)c3)C(=O)N(Cc3ccc(C(F)(F)F)cc3C(F)(F)F)c3ccccc32)cc(C)c1O [Example 68, 1-(2,4-Bis-trifluoromethyl-benzyl)-3,3-bis-(4-hydroxy-3,5-dimethyl-phenyl)-1,3-dihydro-indol-2-one]",≤ 1 µM
5,"Cc1cc(C2(c3cc(C)c(O)c(C)c3)C(=O)N(Cc3cccc(C)c3F)c3ccccc32)cc(C)c1O [Example 70, 1-(2-Fluoro-3-methyl-benzyl)-3,3-bis-(4-hydroxy-3,5-dimethyl-phenyl)-1,3-dihydro-indol-2-one]",≤ 0.5 µM
6,"Cc1cc(C2(c3cc(C)c(O)c(C)c3)C(=O)N(Cc3ccc(OCc4ccccc4)cc3)c3ccccc32)cc(C)c1O [Example 74, 1-(4-Benzyloxy-benzyl)-3,3-bis-(4-hydroxy-3,5-dimethyl-phenyl)-1,3-dihydro-indol-2-one]",≤ 1 µM
7,"Cc1cc(C2(c3cc(C)c(O)c(C)c3)C(=O)N(Cc3c(F)cccc3Cl)c3ccccc32)cc(C)c1O [Example 76, 1-(2-Chloro-6-fluoro-benzyl)-3,3-bis-(4-hydroxy-3,5-dimethyl-phenyl)-1,3-dihydro-indol-2-one]",≤ 0.5 µM
8,"CCCCCN1C(=O)C(c2cc(C)c(O)c(C)c2)(c2cc(C)c(O)c(C)c2)c2ccccc21 [Example 77, 3,3-Bis-(4-hydroxy-3,5-dimethyl-phenyl)-1-pentyl-1,3-dihydro-indol-2-one]",≤ 0.5 µM
9,"Cc1cc(C2(c3cc(C)c(O)c(C)c3)C(=O)N(CC#N)c3ccccc32)cc(C)c1O [Example 78, [3,3-Bis-(4-hydroxy-3,5-dimethyl-phenyl)-2-oxo-2,3-dihydro-indol-1-yl]-acetonitrile]",≤ 0.5 µM
